Measurements taken from paper PMC11672294, “The Antipsychotic Drug Aripiprazole Suppresses Colorectal Cancer by Targeting LAMP2a to Induce RNH1/miR‐99a/mTOR‐Mediated Autophagy and Apoptosis” (Advanced Science, 2024).
Where a name gives a salt, the structure may show the parent alone.

tested on: HT29; details: 72 h, relative to DMSO, 10 µM, Relative cell viability (%)
In short: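 HT29 viability used WST-1 reduction (2 h, 37 °C, A450) after 72 h of treatment; screening compounds were tested singly at 10 µM, with dimethyl sulfoxide as the comparison.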

Point of comparison: COc1ccc(C[C@@H]2c3cc(OC)c(OC)cc3CC[N@+]2(C)CCC(=O)OCCCCCOC(=O)CC[N@@+]2(C)CCc3cc(OC)c(OC)cc3[C@H]2Cc2ccc(OC)c(OC)c2)cc1OC [Cisatracurium Besylate], “Relative cell viability (%)” value 127.3%. Against it:
- C[C@@H]1CCN(C(=O)CC#N)C[C@@H]1N(C)c1ncnc2[nH]ccc12 [Tofacitinib (CP-690550) Citrate] — lower, 115%

same assay, conditions: 72 h, relative to DMSO; 10 µM

Point of comparison: O=c1ccc2ccccc2o1 [Coumarin], “Relative cell viability (%)” value 71.21%. Against it:
- Nc1nnc(-c2cccc(Cl)c2Cl)c(N)n1 [Lamotrigine] — higher, 100%
- CCCCCCOC(=O)NC(=N)c1ccc(NCc2nc3cc(C(=O)N(CCC(=O)OCC)c4ccccn4)ccc3n2C)cc1 [Dabigatran Etexilate] — higher, 102%
- CC[C@@H](C(N)=O)N1CCCC1=O [Levetiracetam] — higher, 78.97%
- Cc1cccc(C)c1OCC(=O)N[C@@H](Cc1ccccc1)[C@@H](O)C[C@H](Cc1ccccc1)NC(=O)[C@H](C(C)C)N1CCCNC1=O [Lopinavir] — lower, 55.61%
- CC1=CC(=O)c2ccccc2C1=O [Menadione] — lower, 15.16%
- CCCCCCCCCCCCCCCC[N+](C)(C)C [Cetrimonium Bromide (CTAB)] — lower, 18.48%
- Cn1c(COP(=O)(NCCBr)NCCBr)cnc1[N+](=O)[O-] [TH-302] — higher, 83.98%
- CNC(=O)c1ccc(N2C(=S)N(c3ccc(C#N)c(C(F)(F)F)c3)C(=O)C2(C)C)cc1F [Enzalutamide (MDV3100)] — higher, 86.76%
- CC1(C)S[C@@H]2[C@H](NC(=O)[C@H](N)c3ccc(O)cc3)C(=O)N2[C@H]1C(=O)O [Amoxicillin] — lower, 67.96%
- C=CC(=O)Nc1cccc(Nc2nc(Nc3ccc(N4CCN(C(C)=O)CC4)cc3OC)ncc2C(F)(F)F)c1 [CO-1686 (AVL-301)] — lower, 16.24%
- CNC(=O)c1ccc(Nc2ncc(C(F)(F)F)c(NCc3nccnc3N(C)S(C)(=O)=O)n2)cc1 [Defactinib (VS-6063, PF-04554878)] — lower, 67.52%
- CC[C@H]1[C@@H](O)[C@@H]2[C@H](CC[C@]3(C)[C@@H]([C@H](C)CCC(=O)O)CC[C@@H]23)[C@@]2(C)CC[C@@H](O)C[C@@H]12 [Obeticholic Acid] — higher, 111.1%
- CN(C)CCc1c[nH]c2ccc(CS(=O)(=O)N3CCCC3)cc12 [Almotriptan Malate] — higher, 113.8%
- CC1(COc2ccc3c(c2)ncn3-c2ccc3cccc(N4CCC(N)CC4)c3n2)COC1 [Crenolanib (CP-868596)] — lower, 11.17%
- CC1=C(/C=C/C(C)=C/C=C/C(C)=C\C(=O)O)C(C)(C)CCC1 [Isotretinoin] — lower, 60.28%
- NS(=O)(=O)NCCNc1nonc1C(=NO)Nc1ccc(F)c(Br)c1 [Epacadostat (INCB024360)] — higher, 100.9%
- CC1(C)S[C@@H]2[C@H](NC(=O)[C@H](NC(=O)N3CCN(S(C)(=O)=O)C3=O)c3ccccc3)C(=O)N2[C@H]1C(=O)O [Mezlocillin Sodium] — higher, 90.303%
- Cc1cccc(Cc2c[nH]cn2)c1C [Detomidine HCl] — higher, 118.5%
- CC(C)c1nc(CN(C)C(=O)N[C@@H](CCN2CCOCC2)C(=O)N[C@H](CC[C@H](Cc2ccccc2)NC(=O)OCc2cncs2)Cc2ccccc2)cs1 [Cobicistat (GS-9350)] — lower, 63.59%
- CCOC(=O)C1=C(C)NC(C)=C(C(=O)OC)C1c1cccc(Cl)c1Cl (stereo not shown) [Felodipine] — lower, 60.17%
- Nc1c(CC(=O)O)cccc1C(=O)c1ccc(Br)cc1 [Bromfenac Sodium] — higher, 78.48%
- CC(=O)[C@H]1CC[C@H]2[C@@H]3CC=C4C[C@@H](O)CC[C@]4(C)[C@H]3CC[C@]12C [Pregnenolone] — higher, 94.21%
- CN(C)C(=O)c1cc2cnc(Nc3ccc(N4CCNCC4)cn3)nc2n1C1CCCC1 [LEE011] — lower, 66.24%
- COc1cc2c(cc1OC)CN(CCc1ccc(NC(=O)c3cccc4c(=O)c5cccc(OC)c5[nH]c34)cc1)CC2 [Elacridar (GF120918)] — lower, 48.29%
- Cc1cc(O)ccc1Cl [Chlorocresol] — lower, 65.76%
- C[N+]1(C)[C@@H]2C[C@@H](OC(=O)[C@H](CO)c3ccccc3)C[C@H]1[C@@H]1O[C@@H]12 [Methscopolamine] — higher, 132.5%
- N#Cc1ccc(C(c2ccc(C#N)cc2)n2cncn2)cc1 [Letrozole] — higher, 82.09%
- C=CCN1CC[C@]23c4c5ccc(O)c4O[C@H]2C(=O)CC[C@@]3(O)[C@H]1C5 [Naloxone HCl] — higher, 95.63%
- Cc1ccc(=O)n(-c2ccccc2)c1 [Pirfenidone] — lower, 56.31%
- CNCCC(Oc1ccc(C(F)(F)F)cc1)c1ccccc1 (stereo not shown) [Fluoxetine HCl] — higher, 86.76%
- [H]/N=C(/N)NS(=O)(=O)c1ccc(N)cc1 [Sulfaguanidine] — lower, 70.303%
- Clc1ccc(CCC(Cn2ccnc2)Sc2c(Cl)cccc2Cl)cc1 (stereo not shown) [Butoconazole nitrate] — lower, 63.98%
- CC[C@H](NC(=O)[C@H](C)NC)C(=O)N1C[C@@H](O)C[C@H]1Cc1c(-c2[nH]c3cc(F)ccc3c2C[C@@H]2C[C@H](O)CN2C(=O)[C@H](CC)NC(=O)[C@H](C)NC)[nH]c2cc(F)ccc12 [Birinapant] — higher, 132.9%
- CCOC(=O)C1=C[C@@H](OC(CC)CC)[C@H](NC(C)=O)[C@@H](N)C1 [Oseltamivir Phosphate] — lower, 60.68%
- CNC[C@H](O)c1ccc(O)c(O)c1 [Epinephrine HCl] — lower, 70.87%
- CC(C)[C@H](N)C(=O)OCCOCn1cnc2c(=O)[nH]c(N)nc21 [Valaciclovir HCl] — higher, 85.59%
- COC1=C(OC)C(=O)C(CCCCCCCCCCO)=C(C)C1=O [Idebenone] — lower, 41.75%
- CCOC(=O)[C@H](CCc1ccccc1)N[C@@H](C)C(=O)N1[C@H](C(=O)O)C[C@@H]2CCC[C@@H]21 [Ramipril] — higher, 75.42%
- c1cn2cc(-c3ccc4cn[nH]c4c3)nc(Nc3ccc(N4CCOCC4)cc3)c2n1 [GS-9973] — higher, 116.2%
- O=P1(N(CCCl)CCCl)NCCCO1 (stereo not shown) [Cyclophosphamide Monohydrate] — higher, 130.7%
- O=C(O)c1cc(=O)c2ccccc2o1 [Chromocarb] — higher, 81.21%
- C=CC[C@@H]1/C=C(\C)C[C@H](C)C[C@H](OC)[C@H]2O[C@@](O)(C(=O)C(=O)N3CCCC[C@H]3C(=O)O[C@H](/C(C)=C/[C@@H]3CC[C@@H](O)[C@H](OC)C3)[C@H](C)[C@@H](O)CC1=O)[C@H](C)C[C@@H]2OC [Tacrolimus (FK506)] — higher, 102.1%
- O=C(/C=C/C=C/c1ccc2c(c1)OCO2)N1CCCCC1 [Piperine] — higher, 104.9%
- Cn1c(=O)cc(N2CCC[C@@H](N)C2)n(Cc2ccccc2C#N)c1=O [Alogliptin] — higher, 101.5%
- CCOC(=O)c1ccc(N)cc1 [Benzocaine] — higher, 80.303%
- CC#CCn1c(N2CCC[C@@H](N)C2)nc2c1c(=O)n(Cc1nc(C)c3ccccc3n1)c(=O)n2C [Linagliptin] — lower, 66.5%
- Cc1cccc(C)c1NC(=O)CN1CCCC1=O [Nefiracetam] — higher, 192.8%
- O=C(NS(=O)(=O)c1ccc(Br)s1)c1ccc(Cl)cc1Cl [Tasisulam] — higher, 94.44%
- O=C(c1ccc(OCCN2CCCCC2)cc1)c1c(-c2ccc(O)cc2)sc2cc(O)ccc12 [Raloxifene HCl] — lower, 36.92%
- COC(=O)N[C@H](C(=O)N1CC2(CC2)C[C@H]1c1ncc(-c2ccc3c(c2)C(F)(F)c2cc(-c4ccc5nc([C@@H]6[C@H]7CC[C@H](C7)N6C(=O)[C@@H](NC(=O)OC)C(C)C)[nH]c5c4)ccc2-3)[nH]1)C(C)C [Ledipasvir (GS5885)] — higher, 80.34%
- Cc1cccc(N(C)C(=S)Oc2ccc3ccccc3c2)c1 [Tolnaftate] — higher, 126.1%
- C[C@H](Nc1ncnc2[nH]cnc12)c1cc2cccc(Cl)c2c(=O)n1-c1ccccc1 [IPI-145 (INK1197)] — higher, 79.06%
- Cc1ccc(NC(=O)c2ccc(CN3CC[C@H](N(C)C)C3)c(C(F)(F)F)c2)cc1Nc1nccc(-c2cncnc2)n1 [Bafetinib (INNO-406)] — lower, 4.206%
- Clc1ccc2c(c1)C(N1CCNCC1)=Nc1ccccc1O2 [Amoxapine] — higher, 73.94%
- CCC1(c2ccccc2)C(=O)NCNC1=O [Primidone] — higher, 178.2%
- CCCCOc1ccc(C(=O)CCN2CCCCC2)cc1 [Dyclonine HCl] — higher, 155.2%
- c1ccc2[nH]c(-c3cscn3)nc2c1 [Thiabendazole] — lower, 70.34%
- NC(CO)(CO)CO [Trometamol] — higher, 73.94%
- CCCCCCCC(=O)N[C@H](CN1CCCC1)[C@H](O)c1ccc2c(c1)OCCO2 [Eliglustat Tartrate] — higher, 81.62%
- Nc1nc(Cl)nc2c1ncn2[C@@H]1O[C@H](CO)[C@@H](O)[C@@H]1F [Clofarabine] — lower, 43.15%
- O=C(O)c1cc(-c2ccccc2)nc2ccccc12 [Cinchophen] — higher, 89.39%
- CCCC(=O)OCOC(=O)C1=C(C)NC(C)=C(C(=O)OC)C1c1cccc(Cl)c1Cl (stereo not shown) [Clevidipine Butyrate] — higher, 112%
- CC(=O)c1cc2c(o1)C(=O)c1ccccc1C2=O [Napabucasin] — lower, 0%
- Cc1c(OCC(F)(F)F)ccnc1C[S+]([O-])c1nc2ccccc2[nH]1 (stereo not shown) [Lansoprazole] — lower, 63.4%
- COc1cc2c(cc1Cc1cccc(Cl)c1F)c(=O)c(C(=O)O)cn2[C@H](CO)C(C)C [Elvitegravir (GS-9137, JTK-303)] — lower, 58.4%
- NC(=O)CN1CC(O)CC1=O (stereo not shown) [Oxiracetam] — lower, 54.85%
- NC(=O)Cc1cccc(C(=O)c2ccccc2)c1N [Nepafenac] — higher, 77.41%
